Laboratory results from ChEMBL document CHEMBL3758109, “A novel triazole derivative of betulinic acid induces extrinsic and intrinsic apoptosis in human leukemia HL-60 cells” (Eur J Med Chem, 2016).

What was measured:
[1] = Cytotoxicity against human MIAPaCa2 cells assessed as cell growth inhibition at 10 uM after 48 hrs by MTT assay; format: functional; conditions: MIA PaCa-2, 48 h, read-out: GI
[2] = Cytotoxicity against human HL60 cells assessed as cell growth inhibition at 10 uM after 48 hrs by MTT assay; format: functional; conditions: HL-60, 48 h, read-out: GI
A549 [3] = assay: Cytotoxicity against human A549 cells assessed as cell growth inhibition at 10 uM after 48 hrs by MTT assay; format: functional; conditions: A549, 48 h, read-out: GI
[4] = Cytotoxicity against human PC3 cells assessed as cell growth inhibition at 10 uM after 48 hrs by MTT assay; format: functional; conditions: PC-3, 48 h, read-out: GI
[5] = Cytotoxicity against human MIAPaCa2 cells assessed as cell growth inhibition after 48 hrs by MTT assay; format: functional, cell-based; conditions: MIA PaCa-2, 48 h
A549 [6] = assay: Cytotoxicity against human A549 cells assessed as cell growth inhibition after 48 hrs by MTT assay; format: functional, cell-based; conditions: A549, 48 h
[7] = Cytotoxicity against human HL60 cells assessed as cell growth inhibition after 48 hrs by MTT assay; format: functional, cell-based; conditions: HL-60, 48 h
[8] = Cytotoxicity against human PC3 cells assessed as cell growth inhibition after 48 hrs by MTT assay; format: functional, cell-based; conditions: PC-3, 48 h

C=C(C)[C@@H]1CC[C@]2(C(=O)OCc3cn(-c4cccc(OC)c4OC)nn3)CC[C@]3(C)[C@H](CC[C@@H]4[C@@]5(C)CC[C@H](O)C(C)(C)[C@@H]5CC[C@]43C)[C@@H]12
inhibition of growth at 10 µM [1]: 30%
inhibition of growth at 10 µM [2]: 58%
inhibition of growth at 10 µM (A549 [3]): 48%
inhibition of growth at 10 µM [4]: 49%

C=C(C)[C@@H]1CC[C@]2(C(=O)OCc3cn(-c4ccc(Br)cc4)nn3)CC[C@]3(C)[C@H](CC[C@@H]4[C@@]5(C)CC[C@H](O)C(C)(C)[C@@H]5CC[C@]43C)[C@@H]12
IC50 [5]: 7 µM
IC50 (A549 [6]): 8 µM
inhibition of growth at 10 µM [1]: 61%
inhibition of growth at 10 µM [2]: 39%
IC50 [7]: 25 µM
IC50 [8]: 25 µM
inhibition of growth at 10 µM (A549 [3]): 54%
inhibition of growth at 10 µM [4]: 45%

C=C(C)[C@@H]1CC[C@]2(C(=O)OCc3cn(-c4ccc(C#N)cc4)nn3)CC[C@]3(C)[C@H](CC[C@@H]4[C@@]5(C)CC[C@H](O)C(C)(C)[C@@H]5CC[C@]43C)[C@@H]12
IC50 [5]: 8 µM
IC50 (A549 [6]): 7 µM
inhibition of growth at 10 µM [1]: 57%
inhibition of growth at 10 µM [2]: 55%
IC50 [7]: 8 µM
IC50 [8]: 12 µM
inhibition of growth at 10 µM (A549 [3]): 63%
inhibition of growth at 10 µM [4]: 46%

C=C(C)[C@@H]1CC[C@]2(C(=O)OCc3cn(-c4c(F)ccc(OC)c4Br)nn3)CC[C@]3(C)[C@H](CC[C@@H]4[C@@]5(C)CC[C@H](O)C(C)(C)[C@@H]5CC[C@]43C)[C@@H]12
inhibition of growth at 10 µM [1]: 7%
inhibition of growth at 10 µM [2]: 12%
inhibition of growth at 10 µM (A549 [3]): 7%
inhibition of growth at 10 µM [4]: 5%

C=C(C)[C@@H]1CC[C@]2(C(=O)OCc3cn(-c4ccccc4C#N)nn3)CC[C@]3(C)[C@H](CC[C@@H]4[C@@]5(C)CC[C@H](O)C(C)(C)[C@@H]5CC[C@]43C)[C@@H]12
inhibition of growth at 10 µM [1]: 4%
inhibition of growth at 10 µM [2]: 22%
inhibition of growth at 10 µM (A549 [3]): 9%
inhibition of growth at 10 µM [4]: 6%

C=C(C)[C@@H]1CC[C@]2(C(=O)OCc3cn(-c4cccc(OC)c4)nn3)CC[C@]3(C)[C@H](CC[C@@H]4[C@@]5(C)CC[C@H](O)C(C)(C)[C@@H]5CC[C@]43C)[C@@H]12
IC50 [5]: 22 µM
IC50 (A549 [6]): 25 µM
inhibition of growth at 10 µM [1]: 28%
inhibition of growth at 10 µM [2]: 5%
IC50 [7]: 25 µM
IC50 [8]: 25 µM
inhibition of growth at 10 µM (A549 [3]): 10%
inhibition of growth at 10 µM [4]: 10%

C=C(C)[C@@H]1CC[C@]2(C(=O)OCc3cn(-c4ccccc4I)nn3)CC[C@]3(C)[C@H](CC[C@@H]4[C@@]5(C)CC[C@H](O)C(C)(C)[C@@H]5CC[C@]43C)[C@@H]12
IC50 [5]: 8 µM
IC50 (A549 [6]): > 100 µM
inhibition of growth at 10 µM [1]: 53%
inhibition of growth at 10 µM [2]: 38%
IC50 [7]: 27 µM
IC50 [8]: > 100 µM
inhibition of growth at 10 µM (A549 [3]): 40%
inhibition of growth at 10 µM [4]: 29%

C=C(C)[C@@H]1CC[C@]2(C(=O)OCc3cn(-c4ccc(C)cc4)nn3)CC[C@]3(C)[C@H](CC[C@@H]4[C@@]5(C)CC[C@H](O)C(C)(C)[C@@H]5CC[C@]43C)[C@@H]12
inhibition of growth at 10 µM [1]: 34%
inhibition of growth at 10 µM [2]: 56%
inhibition of growth at 10 µM (A549 [3]): 52%
inhibition of growth at 10 µM [4]: 67%

C=C(C)[C@@H]1CC[C@]2(C(=O)OCc3cn(/C=C/c4ccccc4)nn3)CC[C@]3(C)[C@H](CC[C@@H]4[C@@]5(C)CC[C@H](O)C(C)(C)[C@@H]5CC[C@]43C)[C@@H]12
inhibition of growth at 10 µM [1]: 35%
inhibition of growth at 10 µM [2]: 20%
inhibition of growth at 10 µM (A549 [3]): 47%
inhibition of growth at 10 µM [4]: 8%

C=C(C)[C@@H]1CC[C@]2(C(=O)OCc3cn(-c4ccc5cc(OC)ccc5c4)nn3)CC[C@]3(C)[C@H](CC[C@@H]4[C@@]5(C)CC[C@H](O)C(C)(C)[C@@H]5CC[C@]43C)[C@@H]12
IC50 [5]: > 100 µM
IC50 (A549 [6]): > 100 µM
inhibition of growth at 10 µM [1]: 12%
inhibition of growth at 10 µM [2]: 35%
IC50 [7]: 29 µM
IC50 [8]: 31 µM
inhibition of growth at 10 µM (A549 [3]): 22%
inhibition of growth at 10 µM [4]: 33%

C=C(C)[C@@H]1CC[C@]2(C(=O)OCc3cn(-c4ccc5oc6ccccc6c5c4)nn3)CC[C@]3(C)[C@H](CC[C@@H]4[C@@]5(C)CC[C@H](O)C(C)(C)[C@@H]5CC[C@]43C)[C@@H]12
inhibition of growth at 10 µM [1]: 7%
inhibition of growth at 10 µM [2]: 14%
inhibition of growth at 10 µM (A549 [3]): 5%
inhibition of growth at 10 µM [4]: 4%

C=C(C)[C@@H]1CC[C@]2(C(=O)OCc3cn(-c4ccc(NC(=O)c5ccccc5)cc4)nn3)CC[C@]3(C)[C@H](CC[C@@H]4[C@@]5(C)CC[C@H](O)C(C)(C)[C@@H]5CC[C@]43C)[C@@H]12
inhibition of growth at 10 µM [1]: 0%
inhibition of growth at 10 µM [2]: 0%
inhibition of growth at 10 µM (A549 [3]): 2%
inhibition of growth at 10 µM [4]: 21%

C=C(C)[C@@H]1CC[C@]2(C(=O)OCc3cn(-c4cccc5c(O)cccc45)nn3)CC[C@]3(C)[C@H](CC[C@@H]4[C@@]5(C)CC[C@H](O)C(C)(C)[C@@H]5CC[C@]43C)[C@@H]12
inhibition of growth at 10 µM [1]: 3%
inhibition of growth at 10 µM [2]: 26%
inhibition of growth at 10 µM (A549 [3]): 7%
inhibition of growth at 10 µM [4]: 5%

C=C(C)[C@@H]1CC[C@]2(C(=O)OCc3cn(-c4ccc(-c5ccccc5)cc4)nn3)CC[C@]3(C)[C@H](CC[C@@H]4[C@@]5(C)CC[C@H](O)C(C)(C)[C@@H]5CC[C@]43C)[C@@H]12
inhibition of growth at 10 µM [1]: 10%
inhibition of growth at 10 µM [2]: 13%
inhibition of growth at 10 µM (A549 [3]): 5%
inhibition of growth at 10 µM [4]: 10%

C=C(C)[C@@H]1CC[C@]2(C(=O)OCc3cn(-c4ccc5ccccc5c4)nn3)CC[C@]3(C)[C@H](CC[C@@H]4[C@@]5(C)CC[C@H](O)C(C)(C)[C@@H]5CC[C@]43C)[C@@H]12
inhibition of growth at 10 µM [1]: 6%
inhibition of growth at 10 µM [2]: 18%
inhibition of growth at 10 µM (A549 [3]): 1%
inhibition of growth at 10 µM [4]: 7%

C=C(C)[C@@H]1CC[C@]2(C(=O)OCc3cn(-c4cccc5c(O)cccc45)nn3)CC[C@]3(C)[C@H](CC[C@@H]4[C@@]5(C)CC[C@H](OCc6cn(-c7cccc8c(O)cccc78)nn6)C(C)(C)[C@@H]5CC[C@]43C)[C@@H]12
inhibition of growth at 10 µM [1]: 19%
inhibition of growth at 10 µM [2]: 23%
inhibition of growth at 10 µM (A549 [3]): 18%
inhibition of growth at 10 µM [4]: 18%

C=C(C)[C@@H]1CC[C@]2(C(=O)OCc3cn(-c4ccc(C(C)(C)C)cc4)nn3)CC[C@]3(C)[C@H](CC[C@@H]4[C@@]5(C)CC[C@H](O)C(C)(C)[C@@H]5CC[C@]43C)[C@@H]12
inhibition of growth at 10 µM [1]: 9%
inhibition of growth at 10 µM [2]: 11%
inhibition of growth at 10 µM (A549 [3]): 9%
inhibition of growth at 10 µM [4]: 9%

C=C(C)[C@@H]1CC[C@]2(C(=O)OCc3cn(-c4cccc(OCc5ccc(F)cc5)c4)nn3)CC[C@]3(C)[C@H](CC[C@@H]4[C@@]5(C)CC[C@H](O)C(C)(C)[C@@H]5CC[C@]43C)[C@@H]12
inhibition of growth at 10 µM [1]: 9%
inhibition of growth at 10 µM [2]: 32%
inhibition of growth at 10 µM (A549 [3]): 6%
inhibition of growth at 10 µM [4]: 4%

C=C(C)[C@@H]1CC[C@]2(C(=O)OCc3cn(-c4ccc(C=O)cc4)nn3)CC[C@]3(C)[C@H](CC[C@@H]4[C@@]5(C)CC[C@H](O)C(C)(C)[C@@H]5CC[C@]43C)[C@@H]12
inhibition of growth at 10 µM [1]: 7%
inhibition of growth at 10 µM [2]: 21%
inhibition of growth at 10 µM (A549 [3]): 4%
inhibition of growth at 10 µM [4]: 9%

C#CCOC(=O)[C@]12CC[C@@H](C(=C)C)[C@@H]1[C@H]1CC[C@@H]3[C@@]4(C)CC[C@H](O)C(C)(C)[C@@H]4CC[C@@]3(C)[C@]1(C)CC2
inhibition of growth at 10 µM [1]: 20%
inhibition of growth at 10 µM [2]: 50%
inhibition of growth at 10 µM (A549 [3]): 41%
inhibition of growth at 10 µM [4]: 46%

C=C(C)[C@@H]1CC[C@]2(C(=O)OCc3cn(-c4ccccc4C#N)nn3)CC[C@]3(C)[C@H](CC[C@@H]4[C@@]5(C)CC[C@H](OCc6cn(-c7ccccc7C#N)nn6)C(C)(C)[C@@H]5CC[C@]43C)[C@@H]12
inhibition of growth at 10 µM [1]: 23%
inhibition of growth at 10 µM [2]: 12%
inhibition of growth at 10 µM (A549 [3]): 0%
inhibition of growth at 10 µM [4]: 15%

C=C(C)[C@@H]1CC[C@]2(C(=O)OCc3cn(-c4cccc([N+](=O)[O-])c4)nn3)CC[C@]3(C)[C@H](CC[C@@H]4[C@@]5(C)CC[C@H](O)C(C)(C)[C@@H]5CC[C@]43C)[C@@H]12
inhibition of growth at 10 µM [1]: 9%
inhibition of growth at 10 µM [2]: 21%
inhibition of growth at 10 µM (A549 [3]): 8%
inhibition of growth at 10 µM [4]: 10%

C=C(C)[C@@H]1CC[C@]2(C(=O)OCc3cn(-c4ccc(OCCC)c(Cl)c4)nn3)CC[C@]3(C)[C@H](CC[C@@H]4[C@@]5(C)CC[C@H](O)C(C)(C)[C@@H]5CC[C@]43C)[C@@H]12
inhibition of growth at 10 µM [1]: 3%
inhibition of growth at 10 µM [2]: 23%
inhibition of growth at 10 µM (A549 [3]): 1%
inhibition of growth at 10 µM [4]: 7%

C=C(C)[C@@H]1CC[C@]2(C(=O)OCc3cn(-c4ccc(F)cc4)nn3)CC[C@]3(C)[C@H](CC[C@@H]4[C@@]5(C)CC[C@H](OCc6cn(-c7ccc(F)cc7)nn6)C(C)(C)[C@@H]5CC[C@]43C)[C@@H]12
inhibition of growth at 10 µM [1]: 7%
inhibition of growth at 10 µM [2]: 13%
inhibition of growth at 10 µM (A549 [3]): 11%
inhibition of growth at 10 µM [4]: 8%

C=C(C)[C@@H]1CC[C@]2(C(=O)OCc3cn(-c4cc(C)ccc4C)nn3)CC[C@]3(C)[C@H](CC[C@@H]4[C@@]5(C)CC[C@H](O)C(C)(C)[C@@H]5CC[C@]43C)[C@@H]12
inhibition of growth at 10 µM [1]: 38%
inhibition of growth at 10 µM [2]: 51%
inhibition of growth at 10 µM (A549 [3]): 41%
inhibition of growth at 10 µM [4]: 44%
